Measured values as given in PMC9410094 (Marine Drugs, 2022).
≈ marks a conversion by molar mass, not a printed value. Positions of bridges follow the written chain, without caps; N, C: chain ends. Residues, ends and D or L forms follow the SMILES beside them.

Assays:
[1] = tested on: Gram-positive bacteria; type: cell-based; settings: 24 h
Procedure: (§1) The antimicrobial activity of the peptides was determined via the method of two-fold serial dilutions in sterile 96-well flat-bottom polystyrene microplates (Eppendorf #0030730011) in Mueller–Hinton broth (MHB, Sigma, Kawasaki, Kanagawa, Japan) supplemented with 0.9% NaCl. Bacterial cultures were grown in MHB at 37 °C until the culture reached an optical density OD600 of 1.0 and diluted with the broth so that to reach a final cell concentration of 10^6 CFU/mL. Then 50 μL of the test culture were added to 50 μL of aqueous solutions of the peptides, previously diluted in 0.1% sterilized bovine serum albumin (BSA) to reduce non-specific binding of the peptides to the surface of the plates. Next, the plate was incubated for 24 h at 37 °C and 950 rpm on the plate thermoshaker (Biosan). The values of the minimum inhibitory concentrations (MIC) were determined as the minimum concentration of the peptide, at which there is no culture growth. The results were expressed as the median values of three independent experiments performed in triplicate.

[2] = tested on: Gram-negative bacteria; experiment: Geometric mean of MICs, Gram-negative panel; type: cell-based; settings: geometric mean (GM) of MICs against the 14 Gram-negative strains of Figure 2
Procedure: as §1

[3] = RP-HPLC retention time as measure of hydrophobicity; type: physicochemical; settings: chromatographic, semipreparative RP-HPLC, C18 column, linear gradient 5 to 80% (v/v) acetonitrile in water with 0.1% TFA within 50 minutes; used as measure of hydrophobicity
Procedure: Table S1. Characteristics of the recombinant AMPs.
1 Mean Kyte–Doolittle hydrophobicity index (GRAVY) was calculated using the Expasy ProtParam tool. The maximum and minimum values of this index are +4.5 and -4.5 for poly-Ile and poly-Arg sequences, respectively. 2 Retention times were measured using semipreparative reversed-phase high-performance liquid chromatography (RP - HPLC) on a C18 column with a linear gradient from 5 to 80% ( v/v) acetonitrile in water containing 0.1% trifluoroacetic […]
acid (TFA) within 50 minutes. […]

[4] = tested on: human red blood cells; type: cell-based
Procedure: Figure 4 (A) Hemolytic effect on human red blood cells after 2 h incubation (hemoglobin release assay). (B) Cytotoxicity toward transformed human embryonic kidney cells after 20 h incubation (MTT-assay). The positive control used was 0.1% Triton X-100 and sterile PBS as a negative control. Melittin was used as an additional positive control. The data are presented as the mean ± SD of three independent experiments.
The hemolytic activity of compounds was performed using human red blood cells (hRBS) of healthy donor. Fresh blood was centrifuged to separate the erythrocyte fraction for 15 min at 500 g and washed three times with cold phosphate-buffered saline (PBS) (pH 7.4), after which an 8% (v/v) suspension of erythrocytes in PBS was prepared. Then, 50 µL of erythrocyte suspension was added to the test peptides, previously were dissolved in 50 µL of 0.1% BSA. The plate was incubated for 1.5 h at 37 °C and 950 rpm on the plate thermoshaker. After incubation, the plates were centrifuged for 15 min at 1000 g to settle intact erythrocytes. Next, aliquots of the supernatant were transferred to another plate to measure the amount of hemoglobin release by the absorbance of the solution at 405 nm. As “zero lysis” we used the supernatant obtained after centrifugation of erythrocytes incubated in a PBS solution without the addition of a peptide. As “100% lysis”, we used the supernatant obtained after centrifugation of erythrocytes incubated in a 0.1% Triton X-100, causing their complete lysis. The assays were conducted three times. The quantitative data were presented as an average means with standard deviations. Hemolysis(%)=OD405(compound)−OD405(zerolysis)/OD405(100%lysis)−OD405(zerolysis)×100%

Row | SMILES | Minimum inhibitory concentration (MIC): Gram-positive Geometric mean [1] | Minimum inhibitory concentration (MIC): Gram-negative Geometric mean [2] | RP-HPLC Retention Time [3] | Hemolytic activity (in words) [4]
1 | CC[C@H](C)[C@@H]1NC(=O)[C@H](CCCNC(=N)N)NC(=O)[C@H](C)NC(=O)CNC(=O)[C@H](CC(N)=O)NC(=O)[C@H](CCCNC(=N)N)NC(=O)[C@H](CCCNC(=N)N)NC(=O)[C@H](Cc2ccc(O)cc2)NC(=O)[C@@H]2CSSC[C@H](NC1=O)C(=O)N[C@@H](Cc1ccc(O)cc1)C(=O)N[C@@H](CCCNC(=N)N)C(=O)N[C@@H](CCCNC(=N)N)C(=O)N[C@H](C(=O)N[C@@H](CC(N)=O)C(=O)O)CSSC[C@H](NC(=O)[C@H](Cc1ccc(O)cc1)NC(=O)CN)C(=O)N[C@@H](Cc1ccccc1)C(=O)N[C@@H]([C@@H](C)O)C(=O)N[C@@H](C)C(=O)N2 [Ap10] (H-GYCFTACYRRNGARICYRRCN-OH; disulfide 3-20, 7-16) | 2.52 µM (≈ 6.41 µg/mL) | 0.31 µM (≈ 0.788 µg/mL) | 24.41 min | 
2 | CC(C)C[C@@H]1NC(=O)[C@H](Cc2ccc(O)cc2)NC(=O)[C@@H]2CSSC[C@H](NC(=O)[C@H](CCCNC(=N)N)NC(=O)[C@H](CCCNC(=N)N)NC(=O)[C@H](C(C)C)NC(=O)CNC(=O)[C@H](CC(N)=O)NC(=O)[C@H](CCCNC(=N)N)NC1=O)C(=O)N[C@@H](Cc1ccc(O)cc1)C(=O)N[C@@H](CCCNC(=N)N)C(=O)N[C@@H](CCCNC(=N)N)C(=O)N[C@H](C(=O)N[C@@H](CC(N)=O)C(=O)O)CSSC[C@H](NC(=O)[C@H](Cc1ccc(O)cc1)NC(=O)CN)C(=O)N[C@@H](Cc1ccccc1)C(=O)N[C@@H]([C@@H](C)O)C(=O)N[C@@H](C)C(=O)N2 [Ap8] (H-GYCFTACYLRNGVRRCYRRCN-OH; disulfide 3-20, 7-16) | 16 µM (≈ 41.1 µg/mL) |  | 24.34 min | 
3 | CC(C)C[C@@H]1NC(=O)[C@H](Cc2ccc(O)cc2)NC(=O)[C@@H]2CSSC[C@H](NC(=O)[C@H](C)NC(=O)[C@H](CCCNC(=N)N)NC(=O)[C@H](C(C)C)NC(=O)CNC(=O)[C@H](CC(N)=O)NC(=O)[C@H](CCCNC(=N)N)NC1=O)C(=O)N[C@@H](Cc1ccc(O)cc1)C(=O)N[C@@H](CCCNC(=N)N)C(=O)N[C@@H](CCCNC(=N)N)C(=O)N[C@H](C(=O)N[C@@H](CC(N)=O)C(=O)O)CSSC[C@H](NC(=O)[C@H](Cc1ccc(O)cc1)NC(=O)CN)C(=O)N[C@@H](Cc1ccccc1)C(=O)N[C@@H]([C@@H](C)O)C(=O)N[C@@H](C)C(=O)N2 [Ap7] (H-GYCFTACYLRNGVRACYRRCN-OH; disulfide 3-20, 7-16) | 8 µM (≈ 19.9 µg/mL) |  | 25.61 min | 
4 | CC[C@H](C)[C@@H]1NC(=O)[C@H](CCCNC(=N)N)NC(=O)[C@H](CCCNC(=N)N)NC(=O)CNC(=O)[C@H](CC(N)=O)NC(=O)[C@H](CCCNC(=N)N)NC(=O)[C@H](CC(C)C)NC(=O)[C@H](Cc2ccc(O)cc2)NC(=O)[C@@H]2CSSC[C@H](NC1=O)C(=O)N[C@@H](Cc1ccc(O)cc1)C(=O)N[C@@H](CCCNC(=N)N)C(=O)N[C@@H](CCCNC(=N)N)C(=O)N[C@H](C(=O)N[C@@H](CC(N)=O)C(=O)O)CSSC[C@H](NC(=O)[C@H](Cc1ccc(O)cc1)NC(=O)CN)C(=O)N[C@@H](Cc1ccccc1)C(=O)N[C@@H]([C@@H](C)O)C(=O)N[C@@H](C)C(=O)N2 [Ap6] (H-GYCFTACYLRNGRRICYRRCN-OH; disulfide 3-20, 7-16) | 6.35 µM (≈ 16.4 µg/mL) |  | 24.69 min | 
5 | CC[C@H](C)[C@@H]1NC(=O)[C@H](CCCNC(=N)N)NC(=O)[C@H](C(C)C)NC(=O)CNC(=O)[C@H](CC(N)=O)NC(=O)[C@H](CCCNC(=N)N)NC(=O)[C@H](C)NC(=O)[C@H](Cc2ccc(O)cc2)NC(=O)[C@@H]2CSSC[C@H](NC1=O)C(=O)N[C@@H](Cc1ccc(O)cc1)C(=O)N[C@@H](CCCNC(=N)N)C(=O)N[C@@H](CCCNC(=N)N)C(=O)N[C@H](C(=O)N[C@@H](CC(N)=O)C(=O)O)CSSC[C@H](NC(=O)[C@H](Cc1ccc(O)cc1)NC(=O)CN)C(=O)N[C@@H](Cc1ccccc1)C(=O)N[C@@H]([C@@H](C)O)C(=O)N[C@@H](C)C(=O)N2 [Ap3] (H-GYCFTACYARNGVRICYRRCN-OH; disulfide 3-20, 7-16) | 1 µM (≈ 2.49 µg/mL) |  | 25.47 min | ability to lyse hRBCs is stronger
6 | CC[C@H](C)[C@@H]1NC(=O)[C@H](CCCNC(=N)N)NC(=O)[C@H](C)NC(=O)CNC(=O)[C@H](CC(N)=O)NC(=O)[C@H](CCCNC(=N)N)NC(=O)[C@H](CC(C)C)NC(=O)[C@H](Cc2ccc(O)cc2)NC(=O)[C@@H]2CSSC[C@H](NC1=O)C(=O)N[C@@H](Cc1ccc(O)cc1)C(=O)N[C@@H](CCCNC(=N)N)C(=O)N[C@@H](CCCNC(=N)N)C(=O)N[C@H](C(=O)N[C@@H](CC(N)=O)C(=O)O)CSSC[C@H](NC(=O)[C@H](Cc1ccc(O)cc1)NC(=O)CN)C(=O)N[C@@H](Cc1ccccc1)C(=O)N[C@@H]([C@@H](C)O)C(=O)N[C@@H](C)C(=O)N2 [Ap5] (H-GYCFTACYLRNGARICYRRCN-OH; disulfide 3-20, 7-16) | 5.04 µM (≈ 12.6 µg/mL) |  | 25.53 min | 
7 | CC[C@H](C)[C@@H]1NC(=O)[C@H](CCCNC(=N)N)NC(=O)[C@H](C(C)C)NC(=O)CNC(=O)[C@H](CC(N)=O)NC(=O)[C@H](CCCNC(=N)N)NC(=O)[C@H](CC(C)C)NC(=O)[C@H](C)NC(=O)[C@@H]2CSSC[C@H](NC1=O)C(=O)N[C@@H](Cc1ccc(O)cc1)C(=O)N[C@@H](CCCNC(=N)N)C(=O)N[C@@H](CCCNC(=N)N)C(=O)N[C@H](C(=O)N[C@@H](CC(N)=O)C(=O)O)CSSC[C@H](NC(=O)[C@H](Cc1ccc(O)cc1)NC(=O)CN)C(=O)N[C@@H](Cc1ccccc1)C(=O)N[C@@H]([C@@H](C)O)C(=O)N[C@@H](C)C(=O)N2 [Ap1] (H-GYCFTACALRNGVRICYRRCN-OH; disulfide 3-20, 7-16) | 10.08 µM (≈ 24.6 µg/mL) |  | 26.05 min | 
8 | CC[C@H](C)[C@@H]1NC(=O)[C@H](CCCNC(=N)N)NC(=O)[C@H](C(C)C)NC(=O)CNC(=O)[C@H](CC(N)=O)NC(=O)[C@H](CCCNC(=N)N)NC(=O)[C@H](CC(C)C)NC(=O)[C@H](CCCNC(=N)N)NC(=O)[C@@H]2CSSC[C@H](NC1=O)C(=O)N[C@@H](Cc1ccc(O)cc1)C(=O)N[C@@H](CCCNC(=N)N)C(=O)N[C@@H](CCCNC(=N)N)C(=O)N[C@H](C(=O)N[C@@H](CC(N)=O)C(=O)O)CSSC[C@H](NC(=O)[C@H](Cc1ccc(O)cc1)NC(=O)CN)C(=O)N[C@@H](Cc1ccccc1)C(=O)N[C@@H]([C@@H](C)O)C(=O)N[C@@H](C)C(=O)N2 [Ap2] (H-GYCFTACRLRNGVRICYRRCN-OH; disulfide 3-20, 7-16) | 12.7 µM (≈ 32 µg/mL) |  | 24.29 min | 
